Measured values taken from patent US20230049130A1, “DEUCRAVACITINIB CRYSTAL FORM, PREPARATION METHOD THEREFOR AND USE THEREOF” (CRYSTAL PHARMACEUTICAL (SUZHOU) CO., LTD., priority 2020, published 2023).
Each block holds one compound with its values, some of them ahead of it.

Assays:
Format in all cases: physicochemical
[1] = Kinetic solubility in SGF, FeSSIF and FaSSIF (HPLC)
Protocol: When solubility test is used to predict the in vivo performance of a drug, it is critical to simulate in vivo conditions as closely as possible. Simulated gastric fluid (SGF), Fed-state simulated intestinal fluid (FeSSIF) and Fasted-state simulated intestinal fluid (FaSSIF) can be used to simulate the conditions in vivo and predict the effects of eating, thus solubilities in these media are closer to those in vivo.
15-20 mg of Form CSIII of the present disclosure and 15-20 mg of Form A were suspended into 2.5 mL of SGF, 2.5 mL of FeSSIF, and 2.5 mL of FaSSIF to get suspensions. After equilibrated for 1 h and 4 h, concentrations of these solutions were measured by HPLC.

[2] = Stability of Form CSIII on storage (XRPD, HPLC purity); details: for Crystalline form after storage: XRPD
Protocol: Approximately 5 mg of Form CSIII samples was stored under different conditions of 25° C./60%RH, 40° C./75%RH, and 60° C./75%RH. Crystalline form and chemical purity were checked by XRPD and HPLC, respectively.

[3] = Physical stability under pressure (tableting, XRPD); details: compressed under 5 kN, 10 kN and 20 kN
Text: A certain amount of Form CSIII was compressed into tablets under 5 kN, 10 kN and 20 kN with suitable tableting die. Crystalline forms before and after tableting were checked by XRPD.

[4] = Physical stability upon grinding (XRPD); details: ground manually 5 minutes in a mortar
Protocol: Form CSIII sample was grounded manually for 5 minutes in a mortar. Crystalline forms before and after grinding were checked by XRPD.

[5] = Physical stability upon humidity change (DVS, XRPD); details: cycle of 0%-95%-0%RH at 25° C.
Protocol: Dynamic Vapor Sorption (DVS) is measured via an SMS (Surface Measurement Systems Ltd.) intrinsic DVS instrument. Its control software is DVS- Intrinsic control software, and its analysis software is DVS-Intrinsic Analysis software. Typical Parameters for DVS test are as follows: • Temperature: 25° C. • Gas and flow rate: N2, 200 mL/min • RH range: 0% RH to 95% RH
Dynamic vapor sorption (DVS) was applied to test the stability of Form CSIII. A certain amount of Form CSIII was tested in a cycle of 0%-95%-0%RH at 25° C.

Bulk and tapped density = details: for Bulk density: about 500 mg powder in 5-mL cylinder; for Tapped density: tapped 1250 times
Protocol: About 500 mg of powder were added into a 5-mL measuring cylinder and bulk volume was recorded. Then the powder was tapped for 1250 times by ZS-2E tap density tester to make it in the tightest state and the tapped volume was recorded. The bulk density and tapped density were calculated.

[6] = applicant's characterisation of repeated prior-art form

Concentration ([1]; FaSSIF, equilibrated 1 hour): 49 µg/mL
Solubility relative to that of Form A ([1]; FaSSIF, equilibrated 1 hour): 3.6 times
Concentration ([1]; FaSSIF, equilibrated 4 hours): 55.7 µg/mL
Solubility relative to that of Form A ([1]; FaSSIF, equilibrated 4 hours): 4.1 times
Concentration ([1]; FeSSIF, equilibrated 1 hour): 193.6 µg/mL
Concentration ([1]; FeSSIF, equilibrated 4 hours): 179.3 µg/mL
Concentration ([1]; SGF, equilibrated 1 hour): 1582.4 µg/mL
Concentration ([1]; SGF, equilibrated 4 hours): 1296.8 µg/mL
Time stable on storage ([2]; 25° C./60% RH): at least 3 months
Crystalline form after storage ([2]; 25° C./60%RH (open), 3 months): Form CSIII
Crystalline form after storage ([2]; 25° C./60%RH (sealed), 3 months): Form CSIII
Time stable on storage ([2]; 40° C./75% RH): at least 3 months
Crystalline form after storage ([2]; 40° C./75%RH (open), 3 months): Form CSIII
Crystalline form after storage ([2]; 40° C./75%RH (sealed), 3 months): Form CSIII
Time stable on storage ([2]; 60° C./75% RH): at least one month
Change in chemical purity during storage ([2]; 60° C./75% RH, one month, open condition, HPLC): 0.07%
Crystalline form after storage ([2]; 60° C./75%RH (open), one month): Form CSIII
Crystalline form after storage ([2]; 60° C./75%RH (sealed), one month): Form CSIII
Crystalline state after tableting [3]: does not change
Crystalline state after grinding [4]: does not change
Crystalline state after DVS test [5]: does not change
Bulk density (Bulk and tapped density): 0.4276 g/mL
Tapped density (Bulk and tapped density): 0.5987 g/mL
SMILES: [2H]C([2H])([2H])NC(=O)c1nnc(NC(=O)C2CC2)cc1Nc1cccc(-c2ncn(C)n2)c1OC [Form CSIII, 6-(cyclopropanecarboxamido)-4-((2-methoxy-3-(1-methyl-1H-1,2,4-triazol-3-yl)phenyl)amino)-N-(methyl-d3) pyridazine-3-carboxamide]

Concentration ([1]; FaSSIF, equilibrated 1 hour): 13.5 µg/mL
Concentration ([1]; FaSSIF, equilibrated 4 hours): 13.6 µg/mL
Concentration ([1]; FeSSIF, equilibrated 1 hour): 82.3 µg/mL
Concentration ([1]; FeSSIF, equilibrated 4 hours): 68.8 µg/mL
Concentration ([1]; SGF, equilibrated 1 hour): 1114.1 µg/mL
Concentration ([1]; SGF, equilibrated 4 hours): 617.2 µg/mL
Solubility (in words) [1, 6]: poor solubility
Bulk density (Bulk and tapped density): 0.3899 g/mL
Density (in words) (Bulk and tapped density; [6]): low density
Tapped density (Bulk and tapped density): 0.5199 g/mL
SMILES: [2H]C([2H])([2H])NC(=O)c1nnc(NC(=O)C2CC2)cc1Nc1cccc(-c2ncn(C)n2)c1OC [Form A, 6-(cyclopropanecarboxamido)-4-((2-methoxy-3-(1-methyl-1H-1,2,4-triazol-3-yl)phenyl)amino)-N-(methyl-d3) pyridazine-3-carboxamide, reference compound]
